Measurements reported in ChEMBL document CHEMBL1201862, “PubChem BioAssay data set” (2004).
Activity calls are given as the source filed them.

How the values were obtained:
[1] = target: Intestinal-type alkaline phosphatase (Homo sapiens, UniProt P09923); assay: Dose Response confirmation of uHTS hits from a small molecule inhibitors of human intestinal alkaline phosphatase via a luminescent assay. [Related pubchem assays (depositor defined):AID2544, AID2574]; type: functional
Large T antigen = Large T antigen (Simian virus 40, UniProt P03070); type: functional, Betapolyomavirus macacae;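 note: Confirmatory-stage PubChem screen for compounds that inhibit SV40 T antigen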
[2] = target: DNA dC->dU-editing enzyme APOBEC-3A (Homo sapiens, UniProt P31941); assay: APOBEC3A DNA deaminase inhibitors, dose response, biochemical (AID 504722); type: functional
[3] = target: DNA dC->dU-editing enzyme APOBEC-3G (Homo sapiens, UniProt Q9HC16); assay: Dose Response confirmation of small molecule APOBEC3G DNA Deaminase Inhibitors via a fluorescence-based single-stranded DNA deaminase assay. [Related pubchem assays (depositor defined):AID493012, AID493028]; type: functional
BJ [4] = assay: cytotoxicity toward BJ-TERT fibroblasts, dose response, cell-based, RAS-independent, luminescence (AID 1933); type: functional; settings: Homo sapiens
BJ [5] = assay: cells; type: functional, cell-based; settings: Homo sapiens
[6] = inhibitors of intracellular T. cruzi replication, confirmation, NIH3T3 host cells, beta-gal luminescence (AID 2044); type: functional, cell-based;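 note: intracellular parasites grown in NIH/3T3 mouse fibroblasts as host cells; luminescent beta-galactosidase reporter signal from transgenic T. cruzi replicating inside host cells; inhibitors lower the luminescence signal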
[7] = cytotoxicity toward NIH3T3 fibroblasts, dose response, counter-screen, cell-based, ATP luminescence, mouse fibroblasts (AID 2010); type: functional;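 note: cells exposed to compound for about 90 hours before reading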
BJ [8] = assay: cytotoxicity toward BJ-TERT-LT-ST fibroblasts, dose response, cell-based, RAS-independent, luminescence (AID 1935); type: functional; settings: Homo sapiens;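 note: BJ fibroblasts immortalized with TERT plus LT and ST oncogenes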
[9] = cytotoxicity toward DRD oncogenic fibroblasts, dose response, cell-based, non-viral oncogenic, luminescence (AID 1934); type: functional; settings: Homo sapiens
[10] = cytotoxicity in HEK-293T cells, dose response, cytotoxicity control for BCR NF-kB inhibitor project, luminescence, B-cell screen hits (AID 489021); type: functional, cell-based;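 note: HEK-293T cells carrying an NF-kB luciferase reporter; cells exposed to compound for about 14 hours before viability readout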
[11] = target: T1, Replicative DNA helicase DnaB (Mycobacterium tuberculosis, UniProt P9WMR3); assay: DnaB intein splicing inhibitors, dose response, biochemical, cell-free fluorescence (AID 449749); type: functional
T1 sequence (P9WMR3 whole entry): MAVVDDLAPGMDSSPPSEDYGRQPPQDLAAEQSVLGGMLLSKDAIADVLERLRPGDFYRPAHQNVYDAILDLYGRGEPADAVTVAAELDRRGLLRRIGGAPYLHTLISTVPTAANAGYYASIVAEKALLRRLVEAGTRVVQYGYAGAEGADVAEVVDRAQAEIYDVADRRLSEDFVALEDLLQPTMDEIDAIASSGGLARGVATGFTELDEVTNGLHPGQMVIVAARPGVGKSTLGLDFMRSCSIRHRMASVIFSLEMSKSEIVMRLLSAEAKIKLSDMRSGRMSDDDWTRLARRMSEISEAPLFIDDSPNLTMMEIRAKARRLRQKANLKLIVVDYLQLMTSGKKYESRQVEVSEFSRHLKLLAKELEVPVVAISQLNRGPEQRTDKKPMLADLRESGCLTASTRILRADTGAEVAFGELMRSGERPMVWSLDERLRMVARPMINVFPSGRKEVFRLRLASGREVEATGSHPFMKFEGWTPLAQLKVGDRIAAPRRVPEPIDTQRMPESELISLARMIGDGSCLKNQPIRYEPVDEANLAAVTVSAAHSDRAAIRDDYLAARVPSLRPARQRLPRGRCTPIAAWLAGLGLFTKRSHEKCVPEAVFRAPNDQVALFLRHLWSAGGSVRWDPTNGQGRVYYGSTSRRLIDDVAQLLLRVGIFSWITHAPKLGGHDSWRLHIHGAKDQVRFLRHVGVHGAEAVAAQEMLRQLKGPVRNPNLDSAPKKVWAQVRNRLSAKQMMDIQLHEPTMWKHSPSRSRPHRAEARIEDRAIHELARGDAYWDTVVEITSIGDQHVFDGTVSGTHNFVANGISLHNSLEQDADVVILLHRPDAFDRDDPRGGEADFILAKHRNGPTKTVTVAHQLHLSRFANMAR

Protein RecA = target: T2, Protein RecA (Mycobacterium tuberculosis, UniProt P9WHJ3); assay: Fluorescence Cell-Free Homogeneous Dose Retest to Identify Inhibitors of RecA-Intein Splicing Activity. [Related pubchem assays (depositor defined):AID2097, AID2223, AID489010, AID492950]; type: functional
T2 sequence (P9WHJ3 whole entry): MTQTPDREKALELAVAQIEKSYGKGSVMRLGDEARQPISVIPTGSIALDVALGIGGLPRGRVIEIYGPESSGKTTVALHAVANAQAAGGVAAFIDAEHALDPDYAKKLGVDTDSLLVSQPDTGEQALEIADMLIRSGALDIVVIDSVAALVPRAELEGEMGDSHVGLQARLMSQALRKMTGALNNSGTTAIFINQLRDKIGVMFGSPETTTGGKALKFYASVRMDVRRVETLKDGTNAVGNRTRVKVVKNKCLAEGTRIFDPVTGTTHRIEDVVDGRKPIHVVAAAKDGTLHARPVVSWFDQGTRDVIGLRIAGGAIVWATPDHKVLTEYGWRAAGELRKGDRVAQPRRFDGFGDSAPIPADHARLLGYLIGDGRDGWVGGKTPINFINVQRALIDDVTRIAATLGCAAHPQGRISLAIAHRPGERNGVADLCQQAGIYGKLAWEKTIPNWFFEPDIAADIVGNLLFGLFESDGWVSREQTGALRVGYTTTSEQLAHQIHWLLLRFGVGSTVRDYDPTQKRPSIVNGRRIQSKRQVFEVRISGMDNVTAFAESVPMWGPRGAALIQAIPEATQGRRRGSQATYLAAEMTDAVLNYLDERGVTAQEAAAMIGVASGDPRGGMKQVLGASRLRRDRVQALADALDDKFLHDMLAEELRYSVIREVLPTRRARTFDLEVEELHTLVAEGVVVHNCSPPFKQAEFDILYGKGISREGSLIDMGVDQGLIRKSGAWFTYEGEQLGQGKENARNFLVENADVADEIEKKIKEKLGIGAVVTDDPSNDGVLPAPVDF

Protein Wnt-3a = Protein Wnt-3a (Mus musculus, UniProt P27467); assay: Wnt3a-driven reporter signaling inhibition, dose response, selectivity assay for Gli-SUFU antagonist project, Wnt-LIGHT cells, luminescence (AID 651570); type: functional; settings: read-out: IC50_Mean;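 note: Wnt-LIGHT reporter cells stimulated with conditioned medium from Wnt3a-producing cells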
[12] = target: Glyceraldehyde-3-phosphate dehydrogenase (Homo sapiens, UniProt P04406)
[13] = target: T3, Alkaline phosphatase, tissue-nonspecific isozyme (Homo sapiens, UniProt P05186); assay: human TNAP enzyme inhibitors, SAR follow-up, biochemical, luminescent, dose response (AID 1056)
T3 sequence (P05186 whole entry): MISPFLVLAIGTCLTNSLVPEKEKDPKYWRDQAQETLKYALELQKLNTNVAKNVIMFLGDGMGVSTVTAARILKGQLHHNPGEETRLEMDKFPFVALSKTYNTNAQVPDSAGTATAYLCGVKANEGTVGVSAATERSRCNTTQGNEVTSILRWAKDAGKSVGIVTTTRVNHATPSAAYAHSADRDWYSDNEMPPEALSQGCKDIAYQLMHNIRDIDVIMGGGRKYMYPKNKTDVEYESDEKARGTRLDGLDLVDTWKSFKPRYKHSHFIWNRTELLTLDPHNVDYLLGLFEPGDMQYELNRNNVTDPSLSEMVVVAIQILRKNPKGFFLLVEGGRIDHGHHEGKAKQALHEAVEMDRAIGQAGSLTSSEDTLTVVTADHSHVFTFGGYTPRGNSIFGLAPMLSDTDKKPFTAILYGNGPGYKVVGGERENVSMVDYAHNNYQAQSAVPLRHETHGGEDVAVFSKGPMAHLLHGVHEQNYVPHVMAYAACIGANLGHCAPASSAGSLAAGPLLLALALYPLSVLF

[14] = Luminescence Cell-Based Dose Confirmation HTS to Identify Activators of 5'UTR Stem-Loop Driven Alpha-Synuclein mRNA Translation in H4 Neuroglioblastoma Cells. [Related pubchem assays: 1829 (Project Summary), 1814 (Primary HTS)]; type: functional
[15] = Luminescence Cell-Based Dose Response HTS to Identify Activators of Luciferase Translation or Activity in H4 […] Cells. [Related pubchem assays: 1829 (Project Summary), 1814 (Primary HTS)]; type: functional
H4 = assay: Luminescence Cell-Based Dose Response HTS to Identify Activators of 5'UTR Stem-Loop Driven Prion Protein mRNA Translation in H4 Neuroglioblastoma Cells. [Related pubchem assays: 1829 (Project Summary), 1814 (Primary HTS)]; type: functional; settings: Homo sapiens
[16] = target: T4, Acyl-homoserine lactone acylase PvdQ (Pseudomonas aeruginosa (strain LESB58), UniProt Q9I194); assay: P. aeruginosa PvdQ acylase inhibitors, dose response, biochemical, fluorescence, plate reader and imaging, cherry-picks (AID 493231)
T4 sequence (Q9I194 whole entry): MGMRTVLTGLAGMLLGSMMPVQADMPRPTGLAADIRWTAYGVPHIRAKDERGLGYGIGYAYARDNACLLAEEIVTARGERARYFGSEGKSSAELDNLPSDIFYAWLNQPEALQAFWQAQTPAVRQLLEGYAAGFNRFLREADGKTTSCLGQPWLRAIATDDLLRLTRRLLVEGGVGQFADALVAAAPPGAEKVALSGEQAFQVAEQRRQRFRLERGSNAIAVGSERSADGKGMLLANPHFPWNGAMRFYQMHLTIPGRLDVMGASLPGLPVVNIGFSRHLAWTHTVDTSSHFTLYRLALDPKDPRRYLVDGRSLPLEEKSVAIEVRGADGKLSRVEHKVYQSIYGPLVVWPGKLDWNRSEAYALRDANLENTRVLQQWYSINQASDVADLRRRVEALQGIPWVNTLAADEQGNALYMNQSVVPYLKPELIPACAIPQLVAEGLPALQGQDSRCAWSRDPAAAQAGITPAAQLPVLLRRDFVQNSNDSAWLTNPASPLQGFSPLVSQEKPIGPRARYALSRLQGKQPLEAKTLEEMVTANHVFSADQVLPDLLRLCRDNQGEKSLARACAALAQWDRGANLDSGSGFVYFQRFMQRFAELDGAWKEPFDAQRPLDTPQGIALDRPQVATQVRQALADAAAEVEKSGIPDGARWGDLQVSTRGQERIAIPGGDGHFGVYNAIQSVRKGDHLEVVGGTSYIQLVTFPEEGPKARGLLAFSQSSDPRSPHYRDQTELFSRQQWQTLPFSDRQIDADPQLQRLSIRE

[17] = A Cell Based Secondary Assay To Explore Cytotoxicity of Compounds that Sensitize Mycobacterium Tuberculosis to Beta-Lactam Antibiotics.; type: functional
[18] = target: Voltage-dependent T-type calcium channel subunit alpha-1H (Homo sapiens, UniProt O95180); type: functional;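 note: channel activity triggered by adding a high calcium stimulation buffer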
Cytochrome P450 3A4 = Cytochrome P450 3A4 (Homo sapiens, UniProt P08684);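 note: CYP3A4 tested as one member of a cytochrome P450 panel screen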
[19] = Luminescence Cell-Based Dose Retest to Confirm Inhibitors of Cancer Stem Cells. [Related pubchem assays (depositor defined):AID2717, AID2721]; type: functional; settings: Homo sapiens
[20] = target: T5, Dual specificity protein phosphatase 6 (Rattus norvegicus, UniProt Q64346)
T5 sequence (Q64346 whole entry): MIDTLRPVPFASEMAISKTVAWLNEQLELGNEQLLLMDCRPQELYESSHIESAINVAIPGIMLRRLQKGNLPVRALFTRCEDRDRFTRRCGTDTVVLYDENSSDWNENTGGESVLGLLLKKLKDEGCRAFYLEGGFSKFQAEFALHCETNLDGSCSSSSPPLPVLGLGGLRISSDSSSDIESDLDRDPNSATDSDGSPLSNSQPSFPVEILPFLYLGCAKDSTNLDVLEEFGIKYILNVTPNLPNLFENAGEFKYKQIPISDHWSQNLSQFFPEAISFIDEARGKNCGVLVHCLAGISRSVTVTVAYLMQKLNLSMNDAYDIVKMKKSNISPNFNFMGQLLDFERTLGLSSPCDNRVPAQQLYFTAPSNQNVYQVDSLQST

[21] = target: T5, Dual specificity protein phosphatase 6; type: functional

Sequence of Intestinal-type alkaline phosphatase (P09923 whole entry): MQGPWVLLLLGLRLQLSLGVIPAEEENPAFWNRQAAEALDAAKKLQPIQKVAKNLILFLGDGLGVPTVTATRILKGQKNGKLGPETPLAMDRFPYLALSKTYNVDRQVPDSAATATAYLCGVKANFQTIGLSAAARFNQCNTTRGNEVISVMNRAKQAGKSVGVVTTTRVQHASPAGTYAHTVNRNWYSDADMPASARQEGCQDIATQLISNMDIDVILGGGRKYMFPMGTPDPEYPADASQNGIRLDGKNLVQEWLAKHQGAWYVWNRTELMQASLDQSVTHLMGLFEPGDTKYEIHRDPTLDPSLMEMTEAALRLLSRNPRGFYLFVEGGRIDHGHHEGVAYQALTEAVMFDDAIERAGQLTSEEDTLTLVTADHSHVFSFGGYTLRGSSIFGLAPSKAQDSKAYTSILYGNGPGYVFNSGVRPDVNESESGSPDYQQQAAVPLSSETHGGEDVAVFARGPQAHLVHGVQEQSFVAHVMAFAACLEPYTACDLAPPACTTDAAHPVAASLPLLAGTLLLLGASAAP
Sequence of Glyceraldehyde-3-phosphate dehydrogenase (P04406 whole entry): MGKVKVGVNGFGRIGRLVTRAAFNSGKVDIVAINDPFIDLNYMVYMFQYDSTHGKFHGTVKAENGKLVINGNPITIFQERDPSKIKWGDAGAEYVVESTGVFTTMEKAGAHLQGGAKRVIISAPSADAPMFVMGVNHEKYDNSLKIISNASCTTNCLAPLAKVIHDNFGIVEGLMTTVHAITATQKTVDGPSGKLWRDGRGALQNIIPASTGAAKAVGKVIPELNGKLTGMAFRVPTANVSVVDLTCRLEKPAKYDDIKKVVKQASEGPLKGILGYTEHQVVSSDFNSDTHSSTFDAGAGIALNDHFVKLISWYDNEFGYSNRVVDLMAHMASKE
Sequence of DNA dC->dU-editing enzyme APOBEC-3G (Q9HC16 whole entry): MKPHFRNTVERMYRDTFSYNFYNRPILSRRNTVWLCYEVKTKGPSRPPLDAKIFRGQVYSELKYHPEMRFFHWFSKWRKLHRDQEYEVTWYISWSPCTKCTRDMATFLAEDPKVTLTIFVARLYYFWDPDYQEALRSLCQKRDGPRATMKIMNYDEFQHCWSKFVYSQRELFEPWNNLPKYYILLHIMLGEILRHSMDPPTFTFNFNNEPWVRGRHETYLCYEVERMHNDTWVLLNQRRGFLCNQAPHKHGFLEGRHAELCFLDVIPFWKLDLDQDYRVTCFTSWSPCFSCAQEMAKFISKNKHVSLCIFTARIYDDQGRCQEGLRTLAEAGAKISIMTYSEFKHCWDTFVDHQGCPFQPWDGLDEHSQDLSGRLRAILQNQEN
Sequence of Voltage-dependent T-type calcium channel subunit alpha-1H (O95180 whole entry): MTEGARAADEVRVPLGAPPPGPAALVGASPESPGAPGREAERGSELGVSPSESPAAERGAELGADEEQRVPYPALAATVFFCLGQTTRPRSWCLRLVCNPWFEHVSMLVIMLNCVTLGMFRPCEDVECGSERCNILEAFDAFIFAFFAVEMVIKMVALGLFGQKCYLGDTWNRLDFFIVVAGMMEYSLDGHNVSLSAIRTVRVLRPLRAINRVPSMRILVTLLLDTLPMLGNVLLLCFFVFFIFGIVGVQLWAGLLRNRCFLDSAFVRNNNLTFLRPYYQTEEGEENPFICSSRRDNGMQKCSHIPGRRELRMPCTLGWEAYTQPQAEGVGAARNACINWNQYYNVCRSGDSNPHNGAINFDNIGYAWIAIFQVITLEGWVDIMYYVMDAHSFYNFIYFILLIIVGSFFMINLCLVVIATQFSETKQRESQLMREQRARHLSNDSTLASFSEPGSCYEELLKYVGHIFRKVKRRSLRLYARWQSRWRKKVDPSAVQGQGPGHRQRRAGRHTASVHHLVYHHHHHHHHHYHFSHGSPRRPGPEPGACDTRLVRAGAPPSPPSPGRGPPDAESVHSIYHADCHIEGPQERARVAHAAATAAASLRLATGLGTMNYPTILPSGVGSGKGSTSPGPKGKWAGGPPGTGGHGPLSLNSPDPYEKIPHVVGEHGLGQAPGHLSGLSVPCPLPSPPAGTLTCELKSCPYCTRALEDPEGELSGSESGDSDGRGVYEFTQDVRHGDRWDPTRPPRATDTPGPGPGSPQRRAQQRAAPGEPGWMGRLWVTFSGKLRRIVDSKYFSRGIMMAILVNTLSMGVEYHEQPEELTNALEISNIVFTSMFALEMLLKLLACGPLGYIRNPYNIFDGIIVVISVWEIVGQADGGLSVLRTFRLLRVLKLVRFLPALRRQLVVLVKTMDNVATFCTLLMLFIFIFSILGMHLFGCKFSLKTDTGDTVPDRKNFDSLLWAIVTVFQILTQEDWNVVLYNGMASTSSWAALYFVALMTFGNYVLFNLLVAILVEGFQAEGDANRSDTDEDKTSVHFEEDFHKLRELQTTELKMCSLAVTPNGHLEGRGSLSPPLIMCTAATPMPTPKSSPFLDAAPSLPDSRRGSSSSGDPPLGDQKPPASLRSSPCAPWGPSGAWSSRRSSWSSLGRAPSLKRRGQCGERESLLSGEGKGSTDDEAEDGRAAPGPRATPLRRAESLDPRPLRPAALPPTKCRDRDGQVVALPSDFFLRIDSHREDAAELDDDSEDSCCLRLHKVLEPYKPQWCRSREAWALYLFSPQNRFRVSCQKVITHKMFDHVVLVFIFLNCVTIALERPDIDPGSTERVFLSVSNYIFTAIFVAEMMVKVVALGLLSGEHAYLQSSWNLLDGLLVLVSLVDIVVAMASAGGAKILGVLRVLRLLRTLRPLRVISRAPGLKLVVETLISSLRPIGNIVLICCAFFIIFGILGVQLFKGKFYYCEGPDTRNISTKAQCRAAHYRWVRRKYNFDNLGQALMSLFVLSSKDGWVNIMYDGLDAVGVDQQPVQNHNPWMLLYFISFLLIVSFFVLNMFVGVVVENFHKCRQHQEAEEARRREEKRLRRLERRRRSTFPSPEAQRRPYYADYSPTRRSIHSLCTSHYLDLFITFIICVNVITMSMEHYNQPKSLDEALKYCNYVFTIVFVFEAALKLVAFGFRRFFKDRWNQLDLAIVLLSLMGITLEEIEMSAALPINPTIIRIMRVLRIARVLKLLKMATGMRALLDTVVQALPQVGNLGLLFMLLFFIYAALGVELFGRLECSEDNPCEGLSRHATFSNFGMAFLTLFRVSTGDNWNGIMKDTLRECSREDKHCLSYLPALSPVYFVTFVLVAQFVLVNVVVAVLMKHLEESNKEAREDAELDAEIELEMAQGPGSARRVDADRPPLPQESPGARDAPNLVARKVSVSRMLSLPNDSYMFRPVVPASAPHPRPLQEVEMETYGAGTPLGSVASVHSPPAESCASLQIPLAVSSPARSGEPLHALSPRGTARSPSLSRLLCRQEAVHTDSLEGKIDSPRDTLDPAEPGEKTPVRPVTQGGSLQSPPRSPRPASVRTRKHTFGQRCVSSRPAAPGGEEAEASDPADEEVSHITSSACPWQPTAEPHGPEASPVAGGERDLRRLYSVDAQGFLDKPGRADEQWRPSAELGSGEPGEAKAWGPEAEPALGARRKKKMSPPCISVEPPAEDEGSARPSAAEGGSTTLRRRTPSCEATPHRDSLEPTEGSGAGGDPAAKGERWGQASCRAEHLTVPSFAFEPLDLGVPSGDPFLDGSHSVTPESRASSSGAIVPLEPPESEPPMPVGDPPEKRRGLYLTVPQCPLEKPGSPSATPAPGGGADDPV
Sequence of DNA dC->dU-editing enzyme APOBEC-3A (P31941 whole entry): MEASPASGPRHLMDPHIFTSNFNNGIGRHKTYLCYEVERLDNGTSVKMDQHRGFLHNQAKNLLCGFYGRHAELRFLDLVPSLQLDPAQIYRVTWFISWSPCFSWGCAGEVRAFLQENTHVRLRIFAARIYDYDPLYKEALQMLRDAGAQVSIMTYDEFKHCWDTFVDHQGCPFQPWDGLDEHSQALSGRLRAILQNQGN
Sequence of Large T antigen (P03070 whole entry): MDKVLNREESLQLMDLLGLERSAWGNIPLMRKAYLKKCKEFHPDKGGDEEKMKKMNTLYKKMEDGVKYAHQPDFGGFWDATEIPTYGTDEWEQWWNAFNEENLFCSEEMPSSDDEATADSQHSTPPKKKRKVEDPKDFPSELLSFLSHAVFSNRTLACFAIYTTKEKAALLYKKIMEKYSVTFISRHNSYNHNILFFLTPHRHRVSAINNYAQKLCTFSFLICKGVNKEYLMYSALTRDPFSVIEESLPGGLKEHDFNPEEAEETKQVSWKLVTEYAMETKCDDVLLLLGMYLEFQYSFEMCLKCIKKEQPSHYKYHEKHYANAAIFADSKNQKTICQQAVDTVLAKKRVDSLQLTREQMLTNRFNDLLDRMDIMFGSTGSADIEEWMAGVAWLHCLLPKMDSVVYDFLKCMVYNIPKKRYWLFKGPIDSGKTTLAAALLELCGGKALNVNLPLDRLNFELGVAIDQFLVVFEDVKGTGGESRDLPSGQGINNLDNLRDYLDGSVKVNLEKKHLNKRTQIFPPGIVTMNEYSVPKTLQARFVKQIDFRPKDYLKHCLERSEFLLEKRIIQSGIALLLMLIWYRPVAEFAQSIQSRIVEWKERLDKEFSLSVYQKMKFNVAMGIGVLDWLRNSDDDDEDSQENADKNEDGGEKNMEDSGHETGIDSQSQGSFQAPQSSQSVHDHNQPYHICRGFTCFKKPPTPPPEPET
Sequence of Protein Wnt-3a (P27467 whole entry): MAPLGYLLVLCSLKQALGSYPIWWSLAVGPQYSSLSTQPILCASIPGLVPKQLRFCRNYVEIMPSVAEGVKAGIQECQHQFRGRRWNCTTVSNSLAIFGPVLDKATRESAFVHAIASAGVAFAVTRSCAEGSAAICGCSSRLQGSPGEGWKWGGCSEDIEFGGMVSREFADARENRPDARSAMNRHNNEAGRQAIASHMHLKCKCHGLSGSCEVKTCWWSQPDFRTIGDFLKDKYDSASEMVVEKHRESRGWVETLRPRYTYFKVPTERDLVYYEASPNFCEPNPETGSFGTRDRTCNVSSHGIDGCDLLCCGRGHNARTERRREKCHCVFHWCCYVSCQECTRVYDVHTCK

Structure (SMILES): COc1cc(Cl)ccc1OCc1cc(C(=O)N2CCCCCCC2)no1
- IC50 [1]: > 100 µM (inactive)

Structure (SMILES): CCSS(=O)(=O)c1cccc2cccnc12
- IC50 (Large T antigen): > 100 µM (active)
- IC50 [2]: > 100 µM (inactive)
- IC50 [3]: 12.7 µM (active)

Structure (SMILES): COc1ccc(C(C(=O)NC2CCCCC2)N(C(=O)CCl)c2ccc(Cl)cc2)cc1 (stereo unspecified)
- EC50 (BJ [4]): 0.152 µM (active)
- EC50 (BJ [5]): 2.51 µM (active)
- EC50 [6]: 0.166 µM (active)
- EC50 [7]: 1.23 µM (active)
- EC50 (BJ [8]): 4.11 µM (inconclusive)
- EC50 [9]: 0.681 µM (active)
- IC50 [10]: > 80 µM (inactive)
- AC50 [11]: 0.774 µM (active)
- EC50 (Protein RecA): 0.236 µM (active)
- IC50 (Protein Wnt-3a): 3.16 µM (active)

Structure (SMILES): CCCCc1ccc(S(=O)(=O)Nc2cnc3ccccc3c2)cc1
- IC50 [12]: > 100 µM (not active)
- IC50 [13]: > 100 µM (inactive)

Structure (SMILES): COC(=O)CSc1nnc(S)s1
- IC50 [2]: > 100 µM (inactive)
- IC50 [3]: 17 µM (active)

Structure (SMILES): COC(=O)c1cc(C#N)c(Oc2ccccc2OC)nc1C
- IC50 [1]: > 100 µM (inactive)

Structure (SMILES): CCOC(=O)c1cc2c(s1)-c1c(C)cccc1OC2
- EC50 [14]: 39.8 µM (active)
- EC50 [15]: 7.26 µM (active)
- EC50 (H4): 30.9 µM (active)
- AC50 [16]: 0.443 µM (active)

Structure (SMILES): COC(=O)c1ccc(NC(=S)N2CCCC2)cc1
- AC50 [16]: 10.3 µM (active)

Structure (SMILES): N=c1ccn(Cc2c(Cl)cccc2Cl)cc1
- IC50 [10]: > 80 µM (inactive)

Structure (SMILES): O=C(c1cnn2c(C(F)(F)F)cc(-c3cccs3)nc12)N1CCN(C(c2ccccc2)c2ccccc2)CC1
- CC50 [17]: > 40 µM (active)
- EC50 [18]: 6.75 µM (active)

Structure (SMILES): O=C(Cc1ncc(C(F)(F)F)cc1Cl)Nc1cccc(Br)c1
- EC50 [18]: 4.24 µM (active)
- AC50 (Cytochrome P450 3A4): 14.1 µM (inconclusive)

Structure (SMILES): CCOc1ccc(NC(=O)CSc2nncn2C)cc1
- IC50 [1]: > 100 µM (inactive)

Structure (SMILES): O=C(C=Cc1ccco1)c1cc(Cl)ccc1O
- AC50 [16]: 21.6 µM (active)

Structure (SMILES): CCc1ccc2[nH]c3nc(N/N=C/c4cccc(O)c4)nnc3c2c1
- AC50 [19]: < 0.16 µM (active)
- IC50 [10]: > 80 µM (inactive)

Structure (SMILES): O=S(=O)(O)c1ccc2cc(/N=N/c3cc(S(=O)(=O)O)c4cccnc4c3O)ccc2c1
- IC50 [12]: > 100 µM (not active)
- IC50 [20]: 5.1 µM (active)
- IC50 [21]: 4.19 µM (active)
